Results published in patent US7781644B2, “Arabidosis AtLEJ1 gene involved in inhibiting biosynthesis of jasmonic acid and ethylene and method for producing male-sterile plant using the same” (Korea University Industry and Academy Cooperation Foundation, priority 2006, dated 2010).

Assays:
[1] = tested on: male-sterile AtLEJ1-overexpressed plant; experiment: Restoration of male-sterile AtLEJ1-overexpressed plant to fertile phenotype by hormone treatment of flower bud cluster; type: in vivo, Arabidopsis
Protocol: First, a flower bud cluster of the AtLEJ1-overexpressed plant was treated with 500 μM jasmonic acid. For a negative control, non-treatment or water alone, was provided.
(§1) The flowers obtained day 2 after treatment with jasmonic acid were embedded in paraffin (Paraplast) and then stained with phloroglucinol for microscopic observation.

[2] = tested on: endothecium cells of stamens of the AtLEJ1-overexpressed plant; experiment: Phloroglucinol staining of paraffin sections for lignification of endothecium cells of stamens after hormone treatment; type: in vivo, Arabidopsis
Text: In order to examine the developmental process of anthers at the cell level, flowers of the wild-type and the AtLEJ1-overexpressed plant were dipped in a fixing solution, dehydrated with a series of ethanol solutions, and embedded in paraffin (Paraplast), followed by microtome section at 8 μm. The sections were stained with 2% phloroglucinol to visualize the lignification of the endothecium cells, known to play an important role in anther dehiscence, and were washed with 9N HCl.
as §1

Compound | restoration to a fertile phenotype ([1]; treatment with 50 mM ACC (FIG. 12)) | restoration to a fertile phenotype ([1]; treatment with 500 mM ACC (FIG. 12)) | lignification of endothecium cells of stamens ([2]; ACC-treated plant, 50 mM or 500 mM (FIG. 13)) | restoration to a fertile phenotype ([1]; 500 μM jasmonic acid on flower bud cluster, one week after treatment, control remained sterile (FIG. 10)) | anther dehiscence (microscopic observation of treated flowers) ([1]; 500 μM jasmonic acid, day 2 after treatment) | lignification of endothecium cells of stamens (phloroglucinol staining) ([2]; 500 μM jasmonic acid, flowers obtained day 2 after treatment (FIG. 11))
NC1(C(=O)O)CC1 [ACC, 1-aminocyclopropane-1-carboxylic acid] | restored to a fertile phenotype | restored to a fertile phenotype | Lignification was also found | – | – | –
CC/C=C\C[C@H]1C(=O)CC[C@@H]1CC(=O)O [jasmonic acid] | – | – | – | at least partly, restored to a fertile phenotype | observed to enter anther dehiscence | lignified
